Source: patent publication USRE37421E, “Rapamycin derivatives” (SmithKline Beecham Corporation, priority 1999, dated 2001)

Tested on: Spleen cells from BDF1 female mice
Test: Mitogenesis Assay for Immunosuppressive Activity (concanavalin A-stimulated spleen cells, 3H-thymidine uptake)
Format: cell-based
Conditions: Concanavalin A 5 μg/ml, 72 hours
Method: Spleen cells from BDF1 female mice were established in RPMI with 10% fetal calf serum at 5×10^6 /mL. […] Concanavalin A (5μ g/ml)was added as the mitogenic stimulus, and the final volume in the microtiter wells was adjusted to 200μ L with RPMI. Cell cultures were incubated for 72 hours at 37° C. in a 5% CO2 atmosphere and pulsed with 0.5μ Ci ^3 H-thymidine (specific activity […]) for the last 18 hours of the 72 hour culture. The cells were harvested on an automated multiple sample harvester and cell-associated radioactivity counted in a Beckman liquid scintillation counter. The results are expressed as the mean values derived from quadruplicate measurements. Cell viability was determined by trypan blue exclusion after 72 hours of incubation. Compounds to be tested were added to the microtiter plates at the appropriate dilutions prior to the addition of cells.

| IC50 (Mus musculus) | IC50 (BDF1 mouse spleen cells) | Structure (SMILES) |
| --- | --- | --- |
| 1 to 10 nM | – | CO[C@H]1C[C@@H]2CC[C@@H](C)[C@@](O)(O2)C(O)C(=O)N2CCCC[C@H]2C(=O)O[C@H]([C@H](C)C[C@@H]2CC[C@@H](O)[C@H](OC)C2)CC(=O)[C@H](C)/C=C(\C)[C@@H](O)[C@@H](OC)C(O)[C@H](C)C[C@H](C)/C=C/C=C/C=C/1C (single isomer, unassigned) [Ex. 2, isomer 1, 14,30-Bisdihydrorapamycin] |
| – | 1 to 10 nM | CO[C@H]1C[C@@H]2CC[C@@H](C)[C@@](O)(O2)C(O)C(=O)N2CCCC[C@H]2C(=O)O[C@H]([C@H](C)C[C@@H]2CC[C@@H](O)[C@H](OC)C2)CC(=O)[C@H](C)/C=C(\C)[C@@H](O)[C@@H](OC)C(O)[C@H](C)C[C@H](C)/C=C/C=C/C=C/1C (single isomer, unassigned) [Ex. 2, isomer 2, 14,30-Bisdihydrorapamycin] |
| 100 to 1000 nM | – | CO[C@H]1C[C@@H]2CC[C@@H](C)[C@@](OC)(O2)C(O)C(=O)N2CCCC[C@H]2C(=O)O[C@H]([C@H](C)C[C@@H]2CC[C@@H](O)[C@H](OC)C2)CC(=O)[C@H](C)/C=C(\C)[C@@H](O)[C@@H](OC)C(O)[C@H](C)C[C@H](C)/C=C/C=C/C=C/1C (single isomer, unassigned) [Ex. 3, major isomer, 14,30-Bisdihydro-13-O-methylrapamycins] |
| – | 2 nM | CO[C@H]1C[C@@H]2CC[C@@H](C)[C@@](O)(O2)C(=O)C(=O)N2CCCC[C@H]2C(=O)O[C@H]([C@H](C)C[C@@H]2CC[C@@H](O)[C@H](OC)C2)CC(=O)[C@H](C)/C=C(\C)[C@@H](O)[C@@H](OC)C(O)[C@H](C)C[C@H](C)/C=C/C=C/C=C/1C (single isomer, unassigned) [Ex. 4, isomer 1, 30-Dihydro-rapamycins] |
| – | 0.1 to 1 nM | CO[C@H]1C[C@@H]2CC[C@@H](C)[C@@](O)(O2)C(=O)C(=O)N2CCCC[C@H]2C(=O)O[C@H]([C@H](C)C[C@@H]2CC[C@@H](O)[C@H](OC)C2)CC(=O)[C@H](C)/C=C(\C)[C@@H](O)[C@@H](OC)C(O)[C@H](C)C[C@H](C)/C=C/C=C/C=C/1C (single isomer, unassigned) [Ex. 4, isomer 2, 30-Dihydro-rapamycins] |
| 10 nM | – | CO[C@H]1C[C@@H]2CC[C@@H](C)[C@@](O)(O2)C(O)C(=O)N2CCCC[C@H]2C(=O)O[C@H]([C@H](C)C[C@@H]2CC[C@@H](O)[C@H](OC)C2)CC(=O)[C@H](C)/C=C(\C)[C@@H](O)[C@@H](OC)C(=O)[C@H](C)C[C@H](C)/C=C/C=C/C=C/1C (single isomer, unassigned; isomer 14) [Ex. 1, major isomer, 14-Dihydrorapamycin] |
| 100 to 1000 nM | – | CO[C@H]1C[C@@H]2CC[C@@H](C)[C@@](O)(O2)C(=O)C(=O)N2CCCC[C@H]2C(=O)O[C@H]([C@H](C)C[C@@H]2CC[C@@H](O)[C@H](OC)C2)CC(=O)[C@H](C)/C=C(\C)[C@H]2OC(C)(C)OC([C@H](C)C[C@H](C)/C=C/C=C/C=C/1C)[C@@H]2OC [Ex. 5, 30-Dihydro-Rapamycin-28, 30-Acetonide] |
| > 1000 nM | – | CO[C@H]1[C@@H](O)[C@H](C)C[C@H](C)/C=C/C=C/C=C(\C)[C@@H](OC)C[C@@H]2CC[C@@H](C)[C@](O)(CC(=O)N3CCCC[C@H]3C(=O)O[C@H]([C@H](C)C[C@@H]3CC[C@@H](O)[C@H](OC)C3)CC(=O)[C@H](C)/C=C(\C)[C@H]1O)O2 [Ex. 6, 14-Desoxo-30 (S) -dihydro-rapamycin] |
